Assays:
[1] = test system: normal NK cells expanded with K562-aAPC; experiment: percent inhibition of viability; higher = more inhibition; conditions: 72 h, IL-2 2.5 ng/mL
Experimental: (§1)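 Drug sensitivity and resistance testing on K562-aAPC-expanded normal NK cells: 5 concentrations (10-fold steps over a 10,000-fold range), 72 h at 37 °C, viability by CellTiter-Glo normalised to DMSO and benzethonium chloride controls; DSS from the fitted curve.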

[2] = test system: normal primary NK cells, pool 2 (3 donors) (IL-2 2.5 ng/mL); experiment: drug sensitivity score (DSS) (DSS units); higher = more sensitive; extreme values may be limits of the assay; conditions: 72 h
[3] = test system: KAI3 (IL-2 2.5 ng/mL); experiment: as above; conditions: 72 h
[4] = test system: YT (IL-2 2.5 ng/mL); experiment: as above; conditions: 72 h
[5] = test system: KHYG-1 (IL-2 2.5 ng/mL); experiment: as above; conditions: 72 h
[6] = test system: DERL-7 (IL-2 2.5 ng/mL); experiment: as above; conditions: 72 h
[7] = test system: NK-92 (IL-2 2.5 ng/mL); experiment: as above; conditions: 72 h
[8] = test system: NK-YS (IL-2 2.5 ng/mL); experiment: as above; conditions: 72 h
[9] = test system: IMC-1 (IL-2 20 ng/mL); experiment: as above; conditions: 72 h
[10] = test system: NKL (IL-2 2.5 ng/mL); experiment: as above; conditions: 72 h
[11] = test system: SNK-6 (IL-2 2.5 ng/mL); experiment: as above; conditions: 72 h
[12] = test system: normal primary NK cells, pool 3 (3 donors) (IL-2 2.5 ng/mL); experiment: as above; conditions: 72 h
[13] = test system: normal primary NK cells, pool 1 (3 donors), resting (IL-2 0 ng/mL); experiment: as above; conditions: 72 h
[14] = test system: normal primary NK cells, pool 1 (3 donors) (IL-2 2.5 ng/mL); experiment: as above; conditions: 72 h
[15] = test system: normal NK cells expanded with K562-aAPC; experiment: as above; conditions: 72 h; IL-2 2.5 ng/mL
Experimental: as §1

[16] = test system: normal primary NK cells, pool 2 (3 donors) (IL-2 2.5 ng/mL); experiment: percent inhibition of viability; higher = more inhibition; conditions: 72 h
[17] = test system: KAI3 (IL-2 2.5 ng/mL); experiment: as above; conditions: 72 h
[18] = test system: YT (IL-2 2.5 ng/mL); experiment: as above; conditions: 72 h
[19] = test system: KHYG-1 (IL-2 2.5 ng/mL); experiment: as above; conditions: 72 h
[20] = test system: DERL-7 (IL-2 2.5 ng/mL); experiment: as above; conditions: 72 h
[21] = test system: NK-92 (IL-2 2.5 ng/mL); experiment: as above; conditions: 72 h
[22] = test system: NK-YS (IL-2 2.5 ng/mL); experiment: as above; conditions: 72 h
[23] = test system: IMC-1 (IL-2 20 ng/mL); experiment: as above; conditions: 72 h
[24] = test system: NKL (IL-2 2.5 ng/mL); experiment: as above; conditions: 72 h
[25] = test system: SNK-6 (IL-2 2.5 ng/mL); experiment: as above; conditions: 72 h
[26] = test system: normal primary NK cells, pool 3 (3 donors) (IL-2 2.5 ng/mL); experiment: as above; conditions: 72 h
[27] = test system: normal primary NK cells, pool 1 (3 donors), resting (IL-2 0 ng/mL); experiment: as above; conditions: 72 h
[28] = test system: normal primary NK cells, pool 1 (3 donors) (IL-2 2.5 ng/mL); experiment: as above; conditions: 72 h

Cn1cc(-c2ccc3nnc(Sc4ccc5ncccc5c4)n3n2)cn1 [SGX-523] (max concentration tested 5000 nM)
percent inhibition of viability [%]
Conditions | 0.5 nM | 5 nM | 50 nM | 500 nM | 5000 nM
[1] | -2.93 | -10.2 | -5.18 | -9.17 | -2.25
[16] | 1.04 | -8.92 | -3.62 | -0.26 | 11.5
[17] | -4.24 | -1.01 | 0.45 | 4.1 | 9.78
[18] | -2.71 | -0.74 | -1.93 | 1.35 | -0.07
[19] | -5.57 | -5.37 | -9.26 | -3.51 | -7.2
[20] | 3.14 | 1.32 | -1.44 | 5.03 | 14.4
[21] | 0.34 | -0.3 | -4.47 | -3.94 | 1.25
[22] | 1.09 | -7.03 | -6.25 | -1.89 | -5.01
[23] | -3.56 | -0.25 | -5.07 | -2.74 | -1.91
[24] | 3.77 | -3.27 | -2.38 | -4.59 | 3.26
[25] | 3.69 | 0.4 | -1.97 | 8.43 | 7.74
[26] | 3.88 | -2.63 | 1.81 | 1.46 | 11.1
[27] | -11.2 | -4.96 | 17.1 | 10.2 | 32.6
[28] | -8.19 | -11.2 | -7.5 | -10.9 | 5.13

Conditions | drug sensitivity score
[2] | 0.02
[3] | 0
[4] | 0
[5] | 0.89
[6] | 0.58
[7] | 0
[8] | 0
[9] | 0.89
[10] | 0
[11] | 0
[12] | 0.04
[13] | 2.87
[14] | 0
[15] | 0.89

CC(C)C(=O)Nc1ccc([N+](=O)[O-])c(C(F)(F)F)c1 [Flutamide] (max concentration tested 10000 nM)
percent inhibition of viability [%]
Conditions | 1 nM | 10 nM | 100 nM | 1000 nM | 10000 nM
[1] | -8.49 | -7.43 | -8.84 | -8.3 | -13.9
[16] | 7.09 | -4.46 | -3.61 | -2.09 | 6.81
[17] | -0.84 | -1.39 | -3.89 | -2.15 | -17.5
[18] | -7.4 | 6 | -4.1 | 6.56 | 19.1
[19] | -7.32 | -1.75 | -9.49 | -4.37 | -1.22
[20] | 0.26 | 11.3 | -2.83 | 6.87 | 2.11
[21] | -9.52 | -2.4 | -7.94 | 12.1 | 22.5
[22] | -0.08 | -3.58 | -2.41 | -5.97 | 2.23
[23] | -0.8 | -1.46 | -1.68 | -2.71 | 12.2
[24] | -6.29 | 8.8 | -0.67 | 5.38 | -13.1
[25] | 21.7 | 46.8 | -5.11 | 31.3 | 24.2
[26] | -0.96 | 0.66 | 3.21 | -0.91 | 1.69
[27] | -8.17 | -16.6 | 6.26 | -12.5 | 8.25
[28] | -3.89 | -10.2 | -4.34 | -7.61 | -4.01

Conditions | drug sensitivity score
[2] | 0
[3] | 0
[4] | 1.25
[5] | 0
[6] | 0
[7] | 2.07
[8] | 0
[9] | 0.02
[10] | 0
[11] | 0
[12] | 0
[13] | 0
[14] | 0
[15] | 0

CN(C[C@@H]1COCCO1)S(=O)(=O)Nc1ccc2ccc3ncc(-c4cnn(C)c4)cc3c(=O)c2c1 [MK-2461] (max concentration tested 10000 nM)
percent inhibition of viability [%]
Conditions | 1 nM | 10 nM | 100 nM | 1000 nM | 10000 nM
[1] | 2.16 | -3.15 | -5.97 | -1.83 | 29.5
[16] | -7.85 | -3.63 | -2.59 | -2.71 | 16.6
[17] | -1.76 | -2.96 | 7.38 | 21.6 | 44.7
[18] | -0.04 | -0.58 | -1.61 | 0.19 | 10.3
[19] | -0.18 | -3.51 | -0.87 | 6.75 | 44.4
[20] | -6.68 | -3.14 | -6.19 | 10.2 | 52.8
[21] | 1.01 | -5.16 | -10.7 | 7.81 | 9.19
[22] | 0.46 | -3.34 | -0.08 | 3.95 | 33.3
[23] | 1.71 | -0.63 | 3.27 | -5.3 | -50.1
[24] | -3.44 | -1.59 | -12 | 8.79 | 30
[25] | 0.33 | -7.16 | -3.05 | -24.8 | 19.4
[26] | -12.9 | -6.11 | -6.1 | -12.5 | -1.21
[27] | -17.8 | -18.1 | -32.3 | -29.1 | 26.9
[28] | -3.44 | -9.95 | -8.02 | -7.44 | 21.8

Conditions | drug sensitivity score
[2] | 0.24
[3] | 4.68
[4] | 0
[5] | 3.41
[6] | 4.49
[7] | 0
[8] | 2.18
[9] | 0
[10] | 2.56
[11] | 0.21
[12] | 0
[13] | 0.54
[14] | 0.46
[15] | 1.13

C1=N/C2=N/c3ccc(OCCN4CCCC4)c(c3)COC/C=C/COCc3cccc(c3)C(=C1)N2 [Pacritinib] (max concentration tested 10000 nM)
percent inhibition of viability [%]
Conditions | 1 nM | 10 nM | 100 nM | 1000 nM | 10000 nM
[1] | -2.28 | -6.13 | 9.28 | 58.8 | 99.4
[16] | -8.58 | 0.56 | 8.47 | 82.3 | 95.9
[17] | -4.38 | 0.97 | 8.91 | 68.1 | 102
[18] | -5.32 | -0.86 | -1.84 | 55.9 | 102
[19] | -2.5 | -2.14 | -0.78 | 61.7 | 102
[20] | -0.5 | 3.08 | 13.1 | 64.9 | 99.9
[21] | -16.4 | -11.8 | 1.4 | 37.9 | 100
[22] | -5.53 | 0.76 | 3.37 | 50.8 | 102
[23] | -5.72 | -0.5 | -10.2 | -17.7 | 98.5
[24] | -10.8 | -10.3 | -2.07 | 65.3 | 102
[25] | -2.06 | 1.27 | -10.4 | 30.5 | 99.4
[26] | -10.8 | -10.8 | 0.28 | 75.3 | 98.7
[27] | -8.26 | -5.07 | -1.15 | 60.6 | 99.4
[28] | 2.77 | -5.07 | 8.34 | 82.1 | 99.9

Conditions | drug sensitivity score
[2] | 16.2
[3] | 14.2
[4] | 12.2
[5] | 12.8
[6] | 14.1
[7] | 10.7
[8] | 11.7
[9] | 4.5
[10] | 13.1
[11] | 9.9
[12] | 14.1
[13] | 12.6
[14] | 16.2
[15] | 12.8

COc1cc2ncnc(Nc3ccc(F)c(Cl)c3)c2cc1NC(=O)/C=C/CN1CCCCC1 [Dacomitinib] (max concentration tested 1000 nM)
percent inhibition of viability [%]
Conditions | 0.1 nM | 1 nM | 10 nM | 100 nM | 1000 nM
[1] | 4.92 | 5.66 | 5.66 | 10.2 | 29.5
[16] | -2.98 | -1.98 | 1.99 | -4.15 | 33
[17] | 7.94 | 10.2 | 11.4 | 7.46 | 31.4
[18] | 5.15 | 4.77 | 7.83 | 2.51 | 14.2
[19] | 10.5 | 10.2 | 7.74 | 5.43 | 16.9
[20] | -5.58 | -2.85 | -0.73 | -3.8 | 35.9
[21] | 14.8 | 4.75 | 15.7 | -7.18 | 27.1
[22] | 7.35 | 1.97 | 10.7 | 6.81 | 23.5
[23] | 9.55 | 7.6 | 11.6 | 10.1 | 13.4
[24] | 3.41 | 22.9 | 21.4 | 24.5 | 43.9
[25] | 6.36 | -3.37 | 6.76 | 1.63 | 22.4
[26] | 0.64 | 1.31 | -1.6 | -10.6 | 17.6
[27] | 4.51 | -7.96 | 0.41 | -14.9 | 59.7
[28] | 2.94 | -9.71 | -7.32 | -13.9 | 28.8

Conditions | drug sensitivity score
[2] | 1.25
[3] | 2.88
[4] | 0
[5] | 0
[6] | 1.45
[7] | 0.79
[8] | 1.38
[9] | 0.74
[10] | 8.95
[11] | 0.98
[12] | 0.2
[13] | 2.49
[14] | 0.77
[15] | 2.02
